Assay results taken from US10004701B2, “Methods and compositions for treating infection” (UNIVERSITY OF ROCHESTER, priority 2012, dated 2018).
Structures can show the parent of a compound that is named as a salt. Where two headings read alike, the source gives them in different places.

What was measured:
Assay in all cases: AK assay 384-well format, Prestwick library screening
K. pneumoniae = format: cell-based, Klebsiella pneumoniae; details: for fold induction at 50 µM: Klebsiella pneumoniae, 3 h
E. coli = format: cell-based, Escherichia coli; details: for fold induction at 50 µM: Escherichia coli, 3 h
[1] = tested on: A. baumannii strain 98-37-09; format: cell-based, Acinetobacter baumannii; details: for fold induction at 50 µM: Acinetobacter baumannii, 983709, 3 h
P. aeruginosa = format: cell-based, Pseudomonas aeruginosa; details: for fold induction at 50 µM: Pseudomonas aeruginosa, 3 h
E. faecium = format: cell-based, Enterococcus faecium; details: for fold induction at 50 µM: Enterococcus faecium, 3 h
E. cloacae = format: cell-based, Enterobacter cloacae; details: for fold induction at 50 µM: Enterobacter cloacae, 3 h
[2] = tested on: S. aureus strain USA300-0114; format: cell-based, Staphylococcus aureus; details: for fold induction at 50 µM: Staphylococcus aureus, USA300, 3 h
[3] = 50 μM final drug concentration, planktonic, […]

## C=C1c2cccc(O)c2C(=O)C2=C(O)[C@]3(O)C(=O)C(C(N)=O)=C(O)[C@@H](N(C)C)[C@@H]3[C@@H](O)[C@H]12 [Methacycline hydrochloride]
K. pneumoniae; 50 μM final drug concentration, cutoff for positive-scoring molecules 3-fold increase, read-out: AK-based Prestwick Library Screening Results, K. pneumoniae (fold increase in extracellular AK activity)
  fold induction at 50 µM: 0.2
E. coli; 50 μM final drug concentration, cutoff for positive-scoring molecules 3-fold increase, read-out: AK-based Prestwick Library Screening Results, E. coli (fold increase in extracellular AK activity)
  fold induction at 50 µM: 3.2
[1]; 50 μM final drug concentration, cutoff for positive-scoring molecules 3-fold increase, read-out: AK-based Prestwick Library Screening Results, A. baumannii (fold increase in extracellular AK activity)
  fold induction at 50 µM: 4.2
P. aeruginosa; 50 μM final drug concentration, cutoff for positive-scoring molecules 3-fold increase, read-out: AK-based Prestwick Library Screening Results, P. aeruginosa (fold increase in extracellular AK activity)
  fold induction at 50 µM: 0.2
E. faecium; 50 μM final drug concentration, cutoff for positive-scoring molecules 3-fold increase, read-out: AK-based Prestwick Library Screening Results, E. faecium (fold increase in extracellular AK activity)
  fold induction at 50 µM: 0.9
E. cloacae; 50 μM final drug concentration, cutoff for positive-scoring molecules 3-fold increase, read-out: AK-based Prestwick Library Screening Results, E. cloacae (fold increase in extracellular AK activity)
  fold induction at 50 µM: 0.4
[2]; 50 μM final drug concentration, cutoff for positive-scoring molecules 3-fold increase, read-out: AK-based Prestwick Library Screening Results, S. aureus (fold increase in extracellular AK activity)
  fold induction at 50 µM: 1.9

## Cc1c(Cl)cccc1Nc1ncccc1C(=O)O.NCCCC[C@H](N)C(=O)O [Clonixin Lysinate]
K. pneumoniae
  AK-based Prestwick library screening result, K. pneumoniae (fold increase in extracellular AK activity): 1.1
E. coli
  AK-based Prestwick library screening result, E. coli (fold increase in extracellular AK activity): 1.0
[1]
  AK-based Prestwick library screening result, A. baumannii (fold increase in extracellular AK activity): 1.4
P. aeruginosa
  AK-based Prestwick library screening result, P. aeruginosa (fold increase in extracellular AK activity): 1.0
E. faecium
  AK-based Prestwick library screening result, E. faecium (fold increase in extracellular AK activity): 0.9
E. cloacae
  AK-based Prestwick library screening result, E. cloacae (fold increase in extracellular AK activity): 1.5
[2]
  AK-based Prestwick library screening result, S. aureus (fold increase in extracellular AK activity): 1.2

## O=C(Cn1ccnc1[N+](=O)[O-])NCCO [Etanidazole]
K. pneumoniae; 50 μM final drug concentration, planktonic, cutoff for positive-scoring molecules 3-fold increase, read-out: AK-based Prestwick Library Screening Results, K. pneumoniae (fold increase in extracellular AK activity)
  fold induction at 50 µM: 0.5
E. coli; 50 μM final drug concentration, planktonic, cutoff for positive-scoring molecules 3-fold increase, read-out: AK-based Prestwick Library Screening Results, E. coli (fold increase in extracellular AK activity)
  fold induction at 50 µM: 0.5
[1]; 50 μM final drug concentration, planktonic, cutoff for positive-scoring molecules 3-fold increase, read-out: AK-based Prestwick Library Screening Results, A. baumannii (fold increase in extracellular AK activity)
  fold induction at 50 µM: 0.5
P. aeruginosa; 50 μM final drug concentration, planktonic, cutoff for positive-scoring molecules 3-fold increase, read-out: AK-based Prestwick Library Screening Results, P. aeruginosa (fold increase in extracellular AK activity)
  fold induction at 50 µM: 0.4
E. faecium; 50 μM final drug concentration, planktonic, cutoff for positive-scoring molecules 3-fold increase, read-out: AK-based Prestwick Library Screening Results, E. faecium (fold increase in extracellular AK activity)
  fold induction at 50 µM: 0.8
E. cloacae; 50 μM final drug concentration, planktonic, cutoff for positive-scoring molecules 3-fold increase, read-out: AK-based Prestwick Library Screening Results, E. cloacae (fold increase in extracellular AK activity)
  fold induction at 50 µM: 0.4
[2]; 50 μM final drug concentration, planktonic, cutoff for positive-scoring molecules 3-fold increase, read-out: AK-based Prestwick Library Screening Results, S. aureus (fold increase in extracellular AK activity)
  fold induction at 50 µM: 0.4

## Cc1cccc(Nc2ccncc2S(=O)(=O)NC(=O)NC(C)C)c1 [Torsemide]
K. pneumoniae; planktonic K. pneumoniae, 50 μM final drug concentration, positive cutoff 3-fold increase, read-out: AK-based Prestwick library screening result, K. pneumoniae (fold increase in extracellular AK activity)
  fold induction at 50 µM: 1.3
E. coli; planktonic E. coli, 50 μM final drug concentration, positive cutoff 3-fold increase, read-out: AK-based Prestwick library screening result, E. coli (fold increase in extracellular AK activity)
  fold induction at 50 µM: 1.1
[1]; planktonic A. baumannii, 50 μM final drug concentration, positive cutoff 3-fold increase, read-out: AK-based Prestwick library screening result, A. baumannii (fold increase in extracellular AK activity)
  fold induction at 50 µM: 1.6
P. aeruginosa; planktonic P. aeruginosa, 50 μM final drug concentration, positive cutoff 3-fold increase, read-out: AK-based Prestwick library screening result, P. aeruginosa (fold increase in extracellular AK activity)
  fold induction at 50 µM: 1.1
E. faecium; planktonic E. faecium, 50 μM final drug concentration, positive cutoff 3-fold increase, read-out: AK-based Prestwick library screening result, E. faecium (fold increase in extracellular AK activity)
  fold induction at 50 µM: 1
E. cloacae; planktonic E. cloacae, 50 μM final drug concentration, positive cutoff 3-fold increase, read-out: AK-based Prestwick library screening result, E. cloacae (fold increase in extracellular AK activity)
  fold induction at 50 µM: 1.4
[2]; planktonic S. aureus, 50 μM final drug concentration, positive cutoff 3-fold increase, read-out: AK-based Prestwick library screening result, S. aureus (fold increase in extracellular AK activity)
  fold induction at 50 µM: 1.5

## C[C@H]1O[C@@H](O[C@H]2CC[C@]3(C=O)[C@H]4CC[C@]5(C)[C@@H](C6=CC(=O)OC6)CC[C@]5(O)[C@@H]4CC[C@]3(O)C2)C[C@H](O)[C@@H]1O [Helveticoside]
K. pneumoniae; [3]
  AK-based Prestwick Library Screening Results, K. pneumoniae (fold increase in extracellular AK activity): 0.5
E. coli; [3]
  AK-based Prestwick Library Screening Results, E. coli (fold increase in extracellular AK activity): 0.5
[1]; [3]
  AK-based Prestwick Library Screening Results, A. baumannii (fold increase in extracellular AK activity): 0.4
P. aeruginosa; [3]
  AK-based Prestwick Library Screening Results, P. aeruginosa (fold increase in extracellular AK activity): 0.4
E. faecium; [3]
  AK-based Prestwick Library Screening Results, E. faecium (fold increase in extracellular AK activity): 0.9
E. cloacae; [3]
  AK-based Prestwick Library Screening Results, E. cloacae (fold increase in extracellular AK activity): 0.4
[2]; [3]
  AK-based Prestwick Library Screening Results, S. aureus (fold increase in extracellular AK activity): 0.4

## C[C@H](N)[C@H](O)c1ccc(O)c(O)c1 [Levonordefrin]
K. pneumoniae; 50 μM final drug concentration, planktonic, […], read-out: AK-based Prestwick Library Screening Results, K. pneumoniae (fold increase in extracellular AK activity)
  fold induction at 50 µM: 0.8
E. coli; 50 μM final drug concentration, planktonic, […], read-out: AK-based Prestwick Library Screening Results, E. coli (fold increase in extracellular AK activity)
  fold induction at 50 µM: 0.7
[1]; 50 μM final drug concentration, planktonic, […], read-out: AK-based Prestwick Library Screening Results, A. baumannii (fold increase in extracellular AK activity)
  fold induction at 50 µM: 0.8
P. aeruginosa; 50 μM final drug concentration, planktonic, […], read-out: AK-based Prestwick Library Screening Results, P. aeruginosa (fold increase in extracellular AK activity)
  fold induction at 50 µM: 0.7
E. faecium; 50 μM final drug concentration, planktonic, […], read-out: AK-based Prestwick Library Screening Results, E. faecium (fold increase in extracellular AK activity)
  fold induction at 50 µM: 1
E. cloacae; 50 μM final drug concentration, planktonic, […], read-out: AK-based Prestwick Library Screening Results, E. cloacae (fold increase in extracellular AK activity)
  fold induction at 50 µM: 0.7
[2]; 50 μM final drug concentration, planktonic, […], read-out: AK-based Prestwick Library Screening Results, S. aureus (fold increase in extracellular AK activity)
  fold induction at 50 µM: 0.6

## Pizotifen malate
K. pneumoniae; planktonic K. pneumoniae, 50 μM final drug concentration, positive cutoff 3-fold increase
  AK-based Prestwick library screening result, K. pneumoniae (fold increase in extracellular AK activity): 0.7
E. coli; planktonic E. coli, 50 μM final drug concentration, positive cutoff 3-fold increase
  AK-based Prestwick library screening result, E. coli (fold increase in extracellular AK activity): 1.0
[1]; planktonic A. baumannii, 50 μM final drug concentration, positive cutoff 3-fold increase
  AK-based Prestwick library screening result, A. baumannii (fold increase in extracellular AK activity): 0.8
P. aeruginosa; planktonic P. aeruginosa, 50 μM final drug concentration, positive cutoff 3-fold increase
  AK-based Prestwick library screening result, P. aeruginosa (fold increase in extracellular AK activity): 0.8
E. faecium; planktonic E. faecium, 50 μM final drug concentration, positive cutoff 3-fold increase
  AK-based Prestwick library screening result, E. faecium (fold increase in extracellular AK activity): 1.0
E. cloacae; planktonic E. cloacae, 50 μM final drug concentration, positive cutoff 3-fold increase
  AK-based Prestwick library screening result, E. cloacae (fold increase in extracellular AK activity): 1.3
[2]; planktonic S. aureus, 50 μM final drug concentration, positive cutoff 3-fold increase
  AK-based Prestwick library screening result, S. aureus (fold increase in extracellular AK activity): 0.7

## [H]/N=C(/N)N/C(=N/[H])NCCc1ccccc1 [Phenformin hydrochloride]
K. pneumoniae; 50 μM final drug concentration, 384-well format, cutoff for positive-scoring molecules 3-fold increase, read-out: AK-based Prestwick Library Screening Results, K. pneumoniae (increase in extracellular AK activity)
  fold induction at 50 µM: 0.6
E. coli; 50 μM final drug concentration, 384-well format, cutoff for positive-scoring molecules 3-fold increase, read-out: AK-based Prestwick Library Screening Results, E. coli (increase in extracellular AK activity)
  fold induction at 50 µM: 0.8
[1]; 50 μM final drug concentration, 384-well format, cutoff for positive-scoring molecules 3-fold increase, read-out: AK-based Prestwick Library Screening Results, A. baumannii (increase in extracellular AK activity)
  fold induction at 50 µM: 0.8
P. aeruginosa; 50 μM final drug concentration, 384-well format, cutoff for positive-scoring molecules 3-fold increase, read-out: AK-based Prestwick Library Screening Results, P. aeruginosa (increase in extracellular AK activity)
  fold induction at 50 µM: 0.7
E. faecium; 50 μM final drug concentration, 384-well format, cutoff for positive-scoring molecules 3-fold increase, read-out: AK-based Prestwick Library Screening Results, E. faecium (increase in extracellular AK activity)
  fold induction at 50 µM: 1
E. cloacae; 50 μM final drug concentration, 384-well format, cutoff for positive-scoring molecules 3-fold increase, read-out: AK-based Prestwick Library Screening Results, E. cloacae (increase in extracellular AK activity)
  fold induction at 50 µM: 0.8
[2]; 50 μM final drug concentration, 384-well format, cutoff for positive-scoring molecules 3-fold increase, read-out: AK-based Prestwick Library Screening Results, S. aureus (increase in extracellular AK activity)
  fold induction at 50 µM: 0.7

## Cc1cc(C(C)(C)C)cc(C)c1CC1=NCCN1 [Xylometazoline hydrochloride]
K. pneumoniae; planktonic K. pneumoniae, 50 μM final drug concentration, 384-well, cutoff for positive-scoring molecules 3-fold increase, read-out: AK-based Prestwick Library Screening Results: K. pneumoniae (increase in extracellular AK activity)
  fold induction at 50 µM: 0.9
E. coli; planktonic E. coli, 50 μM final drug concentration, 384-well, […], read-out: AK-based Prestwick Library Screening Results: E. coli (increase in extracellular AK activity)
  fold induction at 50 µM: 1.2
[1]; planktonic A. baumannii, 50 μM final drug concentration, 384-well, […], read-out: AK-based Prestwick Library Screening Results: A. baumannii (increase in extracellular AK activity)
  fold induction at 50 µM: 1.3
P. aeruginosa; planktonic P. aeruginosa, 50 μM final drug concentration, 384-well, […], read-out: AK-based Prestwick Library Screening Results: P. aeruginosa (increase in extracellular AK activity)
  fold induction at 50 µM: 1.2
E. faecium; planktonic E. faecium, 50 μM final drug concentration, 384-well, cutoff for positive-scoring molecules 3-fold increase, read-out: AK-based Prestwick Library Screening Results: E. faecium (increase in extracellular AK activity)
  fold induction at 50 µM: 1
E. cloacae; planktonic E. cloacae, 50 μM final drug concentration, 384-well, […], read-out: AK-based Prestwick Library Screening Results: E. cloacae (increase in extracellular AK activity)
  fold induction at 50 µM: 1.4
[2]; planktonic S. aureus, 50 μM final drug concentration, 384-well, […], read-out: AK-based Prestwick Library Screening Results: S. aureus (increase in extracellular AK activity)
  fold induction at 50 µM: 1.2
